According to PubChem BioAssay (NCI):
“And” between values parts separate entries of the source, which are not always exact repeats. Equal values may be shown once.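 Compound exposure: 48 hours, 5 concentrations, 96-well plates. GI50 marks 50% less growth. TGI is the concentration that stops growth completely.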

Legend:
Experiment in all cases: inhibition of tumour cell growth, NCI panel, 48 h
SF-268 CNS = system: SF-268 CNS
SF-295 CNS = system: SF-295 CNS
786-0 renal = system: 786-0 renal
RPMI-8226 leukemia = system: RPMI-8226 leukemia
SR leukemia = system: SR leukemia
COLO 205 colon = system: COLO 205 colon
OVCAR-5 ovarian = system: OVCAR-5 ovarian
KM12 colon = system: KM12 colon
SK-MEL-5 melanoma = system: SK-MEL-5 melanoma
SNB-75 CNS = system: SNB-75 CNS

| SMILES | GI50 (SF-268 CNS) [µM] | TGI (SF-268 CNS) | GI50 (SF-295 CNS) [µM] | TGI (SF-295 CNS) [µM] | GI50 (786-0 renal) [µM] | TGI (786-0 renal) [µM] | GI50 (RPMI-8226 leukemia) [µM] | TGI (RPMI-8226 leukemia) | GI50 (SR leukemia) [µM] | TGI (SR leukemia) [µM] | GI50 (COLO 205 colon) [µM] | TGI (COLO 205 colon) [µM] | GI50 (OVCAR-5 ovarian) [µM] | TGI (OVCAR-5 ovarian) [µM] | GI50 (KM12 colon) [µM] | TGI (KM12 colon) | TGI (SK-MEL-5 melanoma) | TGI (SNB-75 CNS) [µM] | GI50 (SK-MEL-5 melanoma) [µM] | GI50 (SNB-75 CNS) [µM] |
| --- | --- | --- | --- | --- | --- | --- | --- | --- | --- | --- | --- | --- | --- | --- | --- | --- | --- | --- | --- | --- |
| COc1cc2c(cc1OCCCOc1cc3c(cc1OC)C(=O)N1C[C@H](F)C[C@H]1C=N3)N=C[C@@H]1C[C@@H](F)CN1C2=O | 2.26 | 6.01 µM | 5.36 | 18.1 | 8.45 | 20.6 | 2.01 | 5.79 µM | 1.54 | 6.38 | 14.4 | 27.4 | 13.2 | 25.9 | 12.7 | 26.7 µM | – | – | – | – |
| COc1ccc([N+]2=NC(c3ccc([N+](=O)[O-])cc3)=NN(c3ccccc3)C2)cc1 | – | > 100 µM | – | > 100 | – | > 100 | – | 80 µM and > 100 µM | – | > 100 | – | > 100 | – | > 100 | – | > 100 µM | 61.5 µM and 83.9 µM | – | – | – |
| CCC1(CC)C(=O)OC(=O)C1(CC)CC | – | > 100 µM | – | > 100 | – | > 100 | – | > 100 µM | – | > 100 | – | > 100 | – | – | – | > 100 µM | > 100 µM | > 100 | – | – |
| O=C1OC(CC(=O)c2ccc(Cl)c(Cl)c2)C(Cl)=C1Cl (configuration not stated) | – | > 100 µM | – | > 100 | – | > 100 | – | > 100 µM | – | – | – | > 100 | – | > 100 | – | > 100 µM | > 100 µM | > 100 | – | – |
| Cc1c[nH]c2c(O)cc3c(c12)[C@H](CCl)CN3C(=O)c1cc2cc(NC(=O)Nc3ccc4[nH]c(C(=O)N5C[C@@H](CCl)c6c5cc(O)c5[nH]cc(C)c65)cc4c3)ccc2[nH]1 | – | 58.9 nM and 82.3 µM and 0.00887 µg/mL | – | – | 0.000203 | – | – | – | 0.000244 | – | 0.0137 | – | – | – | – | 15 nM and 28.1 µM and 3e-06 µg/mL | 26.6 nM and 25.5 µM and 0.00138 µg/mL | – | – | – |
| O=C1c2ccccc2-c2cccc3ccc(Cc4ccc5ccccc5c4)c1c23 | – | > 100 µM | – | > 100 | – | > 100 | – | > 100 µM | – | – | – | > 100 | – | > 100 | – | > 100 µM | > 100 µM | > 100 | – | – |
| CC(=O)[O-].CC(=O)[O-].[Pt+2].c1cscn1.c1cscn1 | > 100 | > 100 µM | > 100 | > 100 | > 100 | > 100 | 57.7 | > 100 µM | – | – | > 100 | > 100 | > 100 | > 100 | > 100 | > 100 µM | > 100 µM | > 100 | > 100 | > 100 |
| CCN(CC)c1cc2c3c(c1)CCCN3CCC2 | – | > 10 µM | – | > 10 | – | > 10 | – | > 10 µM | – | > 10 | – | > 10 | – | – | – | > 10 µM | > 10 µM | > 10 | – | – |
| Cc1cc(I)cc(CN(C)CCCN2CCSCC2)c1O | 28.4 | > 100 µM | – | – | 21.2 | 53.3 | 18.8 | 44.4 µM | 10.6 | 25.3 | 25.2 | 55.3 | 29.1 | 92.4 | 37.2 | > 100 µM | 31 µM | > 100 | 16.4 | 30.6 |
| CCOC(=O)NC(=O)c1cn(CC(=O)NCC(=O)NCC(=O)NCCCN2CCN(CCCNC(=O)CNC(=O)CNC(=O)Cn3cc(C(=O)NC(=O)OCC)c(=O)[nH]c3=O)CC2)c(=O)[nH]c1=O | – | > 100 µM | – | > 100 | – | > 100 | – | – | – | > 100 | – | > 100 | – | > 100 | – | > 100 µM | > 100 µM | > 100 | – | – |
| COc1c2nc(CCl)[nH]c(=O)c2c(OC)c2nc(CCl)[nH]c(=O)c12 | – | > 100 µM | – | > 100 | – | > 100 | – | > 100 µM | – | – | – | > 100 | – | > 100 | – | > 100 µM | > 100 µM | > 100 | – | – |
| COc1cc(OC)cc(C2CC(=O)Nc3c2c(C)nn3-c2nc3ccccc3[nH]2)c1 (configuration not stated) | 3.57 | > 100 µM | 1.58 | 3.85 | 2.84 | 9.89 | 2.64 | 6.29 µM | – | – | 2.7 | 6.55 | 4.15 | > 100 | 2.79 | 7.68 µM | 4.27 µM | 9.65 | 1.97 | 3.47 |
| Cc1c(NC(=O)C(C)(C)Br)c(=O)oc2c(C)c3occc(=O)c3cc12 | – | > 100 µM | – | > 100 | – | > 100 | – | > 100 µM | – | > 100 | – | > 100 | – | – | – | – | > 100 µM | > 100 | – | – |
| O=C(/C=C/c1ccc(F)cc1)c1ccc(Cl)cc1Cl | 74.5 | > 100 µM | 77.3 | > 100 | 45.2 | > 100 | 17.5 | 39.5 µM | 26.4 | 86.5 | 44.2 | > 100 | 32.4 | 96.5 | 38.1 | > 100 µM | > 100 µM | – | 50.8 | – |
| Cc1cc(Cl)ccc1NC(=O)CCCC(=O)C1CCCC1=O (configuration not stated) | – | > 100 µM | – | > 100 | – | > 100 | – | > 100 µM | – | – | – | > 100 | – | > 100 | – | > 100 µM | > 100 µM | – | – | – |
| CC(=O)c1cccc(N2COC(C)(C)c3nc4ccccc4n3C2)c1 | – | > 100 µM | – | > 100 | – | > 100 | – | > 100 µM | – | > 100 | – | > 100 | – | – | – | > 100 µM | – | > 100 | – | – |
| CC/C(C)=C1\CCC(CN2CCOCC2)C1=O (configuration not stated) | – | 26 µM | – | > 100 | – | 22.9 | – | 15.9 µM | – | 49.8 | – | – | – | 31.3 | – | > 100 µM | 78.4 µM | 40.6 | – | – |
| CC1(C)C2CCC3=C(CCC4(C)C5C[C@](C)(C(=O)O)CC[C@]5(C)CC[C@]34C)[C@@]2(C)CC[C@@H]1O (some centres not stated) | – | > 100 µM | – | – | – | 29.3 | – | 51.1 µM | – | > 100 | – | > 100 | – | > 100 | – | 33.6 µM | 68.7 µM | 34.4 | – | – |
| CCOC(=O)C(N)C[S][Sn]([CH3])([CH3])[Cl] (configuration not stated) | > 100 | > 100 µM | > 100 | > 100 | > 100 | > 100 | > 84.9 | > 100 µM | – | – | > 100 | > 100 | > 100 | > 100 | > 100 | > 100 µM | > 100 µM | > 100 | > 100 | 52.5 |
